Assay results: paper PMC10191325 (PLOS Neglected Tropical Diseases, 2023)

What was measured:
[1] = target: T1, WbDHFR (dihydrofolate reductase) (Wuchereria bancrofti, UniProt J9F199); test: biochemical; design: gene WUBG_00817
[2] = target: T1, WbDHFR (dihydrofolate reductase); test: X-ray crystal structure ([…] Å) and tryptophan fluorescence equilibrium titration; assay type: binding; design: gene WUBG_00817; open reading frame with engineered N-terminal His6-tag

Row | IC50 [1] | SMILES | Kd [2]
1 | 0.49 ± 0.16 µM | COc1cc(NCc2ccc3nc(N)nc(N)c3c2C)cc(OC)c1OC [TMX, trimetrexate] | 
2 |  | Nc1nc2ncc(CNc3ccc(C(=O)N[C@@H](CCC(=O)O)C(=O)O)cc3)nc2c(=O)[nH]1 [folate] | 0.023 ± 0.004 µM
3 |  | NC(=O)C1=CN([C@@H]2O[C@H](COP(=O)(O)OP(=O)(O)OC[C@H]3O[C@@H](n4cnc5c(N)ncnc54)[C@H](OP(=O)(O)O)[C@@H]3O)[C@@H](O)[C@H]2O)C=CC1 [NADPH] | 0.09 ± 0.029 µM
